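Step 1: Grow cells in 96-well plates. Step 2: Expose to compound for 48 hours at 5 concentrations. Step 3: Interpolate endpoints linearly; if unreached, use highest concentration. GI50 is the concentration that inhibits growth by half. TGI: concentration producing complete growth inhibition.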
Assays:
Assay in all cases: inhibition of tumour cell growth, NCI panel, 48 h
[1] = system: COLO 205 colon
[2] = system: EKVX NSCLC
[3] = system: HCT-116 colon
[4] = system: K-562 leukemia
[5] = system: OVCAR-4 ovarian
[6] = system: SK-MEL-5 melanoma
[7] = system: SN12C renal
[8] = system: UACC-257 melanoma
[9] = system: HT29 colon
[10] = system: MOLT-4 leukemia

SMILES	GI50 [1]	TGI [1]	GI50 [2]	TGI [2]	GI50 [3]	TGI [3]	GI50 [4]	TGI [4]	GI50 [5]	TGI [5]	GI50 [6]	TGI [6]	GI50 [7]	TGI [7]	GI50 [8]	TGI [8]	GI50 [9]	TGI [9]	GI50 [10]	TGI [10]
Cc1c(-c2ccnc(N)n2)c2c(n1-c1ccccc1)C(=O)c1ccccc1C2=O	44 µM	> 100 µM	21.5 µM	63.7 µM	14.3 µM	> 100 µM	3.78 µM	25.5 µM	58.3 µM	> 100 µM	16.2 µM	34.1 µM	14.7 µM	53.8 µM	34.2 µM	91.9 µM				
CC(C)=CCCC1(C)C=Cc2c(ccc3c2[nH]c2cc(O)c(C)cc23)O1 (stereo unspecified)		> 2.5 µM			8.79 µM	> 25 µM	5.64 µM	15.6 µM		> 25 µM	4.85 µM	9.31 µM	4.63 µM	8.24 µM			4.9 µM	10.5 µM	4.16 µM	11.2 µM
c1ccc2c(Nc3ccc4c(c3)OCO4)c3ccoc3nc2c1	20.2 µM	> 100 µM			14.7 µM	37.3 µM	3.27 µM	27.8 µM	29.4 µM	> 100 µM	8.85 µM	31.2 µM	24.2 µM	82.1 µM					5.69 µM	> 100 µM
O=C1/C(=C/c2ccccc2)CN(C(=O)Oc2ccccc2)C/C1=C\c1ccccc1		> 100 µM		> 100 µM		28.7 µM		22.1 µM		> 100 µM		> 100 µM		> 100 µM		> 100 µM		> 100 µM		
CCOc1c(Cc2ccccc2)c(=O)n2c3ccccc3n3c(=O)n(C)c(=O)c1c23		> 100 µM		> 100 µM		> 100 µM				> 100 µM		> 100 µM		> 100 µM		> 100 µM		> 100 µM		> 100 µM
CCc1cc2c(c3[nH]ccc13)[C@@H](C)C[C@H]2C		38.1 µM		44.6 µM		30.1 µM		45 µM				31.9 µM		29.8 µM		39.9 µM		43.8 µM		38.2 µM
O=C(O)CSc1nnc(COc2ccccc2)n1-c1ccccc1		> 100 µM				> 100 µM				> 100 µM		> 100 µM		> 100 µM		> 100 µM		> 100 µM		> 100 µM
CO[C@H]1/C=C/C=C/C=C/C[C@H](OC(=O)[C@@H](C)NC(=O)C2CCCCC2)[C@H](C)[C@@H](O)/C(C)=C\CCC2=CC(=O)C=C(NC(=O)C1)C2=O	0.116 µM	0.736 µM	0.174 µM	2.25 µM	0.0472 µM	0.738 µM	0.177 µM	> 50 µM	0.225 µM	2.84 µM	0.0845 µM	0.521 µM	0.106 µM	0.556 µM			0.0801 µM	0.513 µM	0.142 µM	7.04 µM
Cc1ccc(/C=C2\CN(C(=O)CCN3CCC(=NO)CC3)C/C(=C\c3ccc(C)cc3)C2=O)cc1			2.72 µM	8.07 µM	0.363 µM	1.28 µM					1.73 µM	3.16 µM								
O=[P+](O)c1cc2c3ccccc3ccc2c2ccccc12		> 100 µM		> 100 µM		> 100 µM		> 100 µM		> 100 µM		> 100 µM		> 100 µM				> 100 µM		> 100 µM
COC(=O)C1=C(c2cc(OC)c(OC)c(OC)c2)OC(c2cc(OC)c(OC)c(OC)c2)C1 (stereo unspecified)		33 µM				32.9 µM		> 100 µM		70.6 µM		32.6 µM		55.1 µM		51.5 µM		58.5 µM		68.5 µM
O=C(O)c1ccccc1/C=C1/Nc2ccccc2C1=O		> 100 µM		> 100 µM		> 100 µM		> 100 µM		> 100 µM				> 100 µM		> 100 µM		> 100 µM		> 100 µM
O=C(c1nc2ccccc2[nH]1)C1C(c2cccc([N+](=O)[O-])c2)C2CC3CCCCC3N2[C@@]12C(=O)Nc1cc(Cl)ccc12 (stereo partly specified)			2.02 µM	6.31 µM			2.6 µM	> 100 µM	2.08 µM	8.87 µM	1.69 µM	3.1 µM	1.72 µM	3.62 µM	1.9 µM	6.09 µM	1.64 µM	4.35 µM	2.38 µM	10.1 µM
COc1ccccc1NC(=O)NS(=O)(=O)c1ccccc1		> 100 µM		> 100 µM		> 100 µM				> 100 µM		> 100 µM		> 100 µM		> 100 µM		> 100 µM		
CC(C)S(=O)(=O)ON1C(=O)c2ccc([N+](=O)[O-])cc2C1=O		> 100 µM		> 100 µM		> 100 µM		> 100 µM		> 100 µM		> 100 µM		> 100 µM		> 100 µM		> 100 µM		
CCC1C(=O)OCc2c1cc1n(c2=O)Cc2ccccc2-1 (stereo unspecified)				> 100 µM		> 100 µM		> 100 µM		> 100 µM		> 100 µM		> 100 µM		> 100 µM		> 100 µM		> 100 µM
Nc1ccc(Sc2ccc3c4c2cccc4c(=O)n2c4ccccc4nc32)cc1	7.24 µM	27.2 µM			5.05 µM	26.7 µM	4.93 µM	> 100 µM	6.93 µM	28.8 µM	2.92 µM	13.9 µM	2.61 µM	19.7 µM	11.8 µM	43.5 µM	8.55 µM	73.2 µM	2.57 µM	7.68 µM
Clc1cc(-c2csc(Cl)c2)cs1		> 100 µM		> 100 µM		> 100 µM				> 100 µM		> 100 µM		> 100 µM		> 100 µM		> 100 µM		> 100 µM
C/C(CC(=O)Nc1cc(Cl)c(Cl)cc1Cl)=N\NS(=O)(=O)c1ccc(C)cc1		61.1 µM		> 100 µM		59.6 µM		> 100 µM				> 100 µM				> 100 µM		> 100 µM		> 100 µM
C=C(C)[C@@H]1CC[C@@H]2C(=CC[C@]3(C)C([C@H](C)CC/C=C(/C)C(=O)O)CC[C@@]23C)[C@@]1(C)CCC(=O)O (stereo partly specified)		39.9 µM		> 100 µM		43.7 µM		> 100 µM		> 100 µM		41.2 µM		> 100 µM		54.2 µM		48.4 µM		
